{"source": "patent US20230190796A1", "about": "“ENGINEERED CELLS EXPRESSING PROSTATE-SPECIFIC MEMBRANE ANTIGEN (PSMA) OR A MODIFIED FORM THEREOF AND RELATED METHODS” (Juno Therapeutics, Inc., priority 2017, published 2023)", "key": {"[1]": {"test_system": "T cells expressing anti-CD19 CAR/PSMA^(N9del)", "assay": "Cytolytic assay in the presence of DCFPyL", "format": "cell-based, human", "conditions": "E:T 4:1; seven 3-fold serial dilutions of DCFPyL starting from 3.33×10^−6 M", "experimental": "Cytolytic activity was assessed by measuring the loss of viable target cells over a period of three days, as determined by red fluorescent signal (using the IncuCyte® Live Cell Analysis System, Essen Bioscience). The number of NLR+ target cells was determined every 2 hours over time from 0 hours to 66 hours. Where indicated, a killing index was determined as 1/area under the curve (AUC) of the NLR+ target cell count over time, from 0 hours to 66 hours.\nSpecifically, co-cultures were incubated with DCFPyL at one of seven (7) 3-fold serial dilutions of DCFPyL starting from 3.33×10^−6 M, or were incubated without DCFPyL (0 M)."}, "[2]": {"test_system": "T cells expressing anti-CD19 CAR/PSMA^(N9del)", "assay": "Cytokine release in co-culture in the presence of DCFPyL", "format": "cell-based, human", "conditions": "E:T 4:1 and 1:1; eight 3-fold serial dilutions of DCFPyL starting from 1×10^−5 M", "experimental": "Specifically, accumulated amounts (pg/mL) of cytokine(s) (IL-2, IFN-gamma, TNF-alpha) were assessed following incubation of the target cells and the various populations of engineered cells, for a period of approximately 22-24 hours. Such assays provided a measure of antigen-specific cytokine secretion per CAR+ cell in the dose. In other assays, cytolytic activity against CD19-expressing target cells was assessed after incubation with the T cells.\nCytokine amounts in culture supernatants were determined using a multiplex cytokine immunoassay (Luminex®)."}}}
{"smiles": "O=C(O)CCC(NC(=O)NC(CCCCNC(=O)c1ccc(F)nc1)C(=O)O)C(=O)O", "note": "(centres unmarked) [DCFPyL, 2-(3-{1-carboxy-5-[(6-fluoro-pyridine-3-carbonyl)-amino]-pentyl}-ureido)-pentanedioicacid]", "values": [{"measurement": "effect on cytolytic activity of T cells expressing anti-CD19 CAR/PSMA^(N9del)", "setting": "[1]", "value": "did not affect"}, {"measurement": "effect on IFN-γ production", "setting": "[2]", "value": "did not substantially affect"}]}
